Reference: patent US20050053625A1, “Method of treating viral infections” (priority 2001, published 2005)

How the values were obtained:
HBV M protein = format: cell-based
Procedure: Hep G2 cells were transfected with an M only expression vector and the next day the cells divided equally into 6 well trays. Compound was added one day latter at the indicated concentrations and the media changed every two days. The presence of sub-viral particles in the medium was detected via the Abbott Diagnostics Auszyme Monoclonal Diagnostic Kit as per manufacture's directions. For Graph: Y-axis is the OD at 492. X-axis indicates the compounds or cells used in the assay.
Hep G2 cells transfected with the HBV M expression vector were treated with the glucosidase inhibitor NB-DNJ (4.5 mM and 6 days latter the amount of M protein associated with the culture medium (secreted) and the cells (retained) determined by ELISA. See text for more details. For graph: x-axis, Drug treatment and location of protein; for y-axis, % of HBV M protein as compared to untreated
Hep G2 cells were transfected with the M only expression vector and seeded as daughter flasks into 6 well trays. Following 4 days of treatment of glucosidase inhibitor (NB-DNJ (4.5 mM)), drug was either removed (in samples labels as —R) or left on as a control. Day 0 is the time in which drug was removed. […] Day 3 and Day 5 are days after drug removal. For Graph: Y-axis is the OD at 492. X-axis indicates the compounds or cells used in the assay. UN=untreated sample; Un-R is the untreated rebound sample; NB=N-butyl-DNJ; NB-R=N-butyl-DNJ rebound sample.
HBV M protein secretion is sensitive to glucosidase inhibition. Our previous work has determined that the secretion of HBV sub-viral particles containing the M protein was sensitive to glucosidase inhibition. (Mehta et al., 1997). That is, when Hep G2 2.215 cells were treated with the glucosidase inhibitor NB-DNJ, purified sub-viral particles appeared to lack the M protein. However, it was unclear if this was the result of the M protein's sensitivity to glucosidase inhibition or required some other viral factor. To test this hypothesis, an expression vector (pCMV-MS^−X) directs the expression of HBV M, but no other viral protein, was created. This “M only” expression vector was then used to determine if the M protein itself, in the absence of other viral functions, was sensitive to glucosidase inhibition. In addition, an expression vector, unable to express “M”, but able to express “S” was made on the same plasmid backbone as the “M” only vector, as was used as a control (pCMV-M^−SX). For these studies three imino sugars were used: N-butyl-DNJ, N-nonyl-DNJ and N-nonyl-DGJ. N-butyl-DNJ is our standard glucosidase inhibitor and has been used by several labs for over 10 years (Carlson et al.,1995, Block et al., 1994). […] Briefly, Hep G2 cells were transfected with the expression vectors pCMV HBV MS^−X and pCMV HBV M^−SX and subsequently seeded into fresh 6 well trays. The transfected cells were treated with the indicated concentrations of NB-DNJ, NN-DNJ or NN-DGJ (as a negative control) and three days latter the media analyzed for the presence of the HBV M or HBV S protein as described in Mehta et al, 2001. […] Fore example, concentrations of NN-DNJ which have no impact upon glycan inhibition, as determined by glycan analysis or α-1-acid-glycoprotein secretion, had no effect upon HBV M protein secretion (data not shown). In contrast to the effect of the glucosidase inhibitors on M protein secretion, the secretion of the HBV S protein was insensitive to either NB-DNJ or NN-DNJ providing further proof that the S protein is insensitive to glucosidase inhibition (data not shown; Block et al., 1994, Mehta et al., 1997, Werr & Prange, 1998). To determine if the secretion of the HBV M protein was prevented by another non-glucosidase mechanism, other compounds with the same alkyl side chain (tail) but altered imino sugar head groups, were synthesized. For example, NN-DGJ has the same chain length as NN-DNJ but is not a glucosidase inhibitor. […]

glucosidase [1] = experiment: Glucosidase / glycan processing inhibition in cells; format: cell-based; details: 10 μg/ml
[2] = design: species or system dogs; details: dog, in vivo
Procedure: Determination of the best glucosidase inhibitor and analysis of glucosidase inhibition. Although our work, confirmed by others, has shown that efficient secretion of the HBV glycoprotein MHBs and LHBs requires the function of the ER glucosidase, the specific glucosidase inhibitor that would be most sensible to use in vivo studies is not entirely obvious. […] However, NNDNJ has a dose limiting toxicity in dogs. Although this occurred at very high doses (more than 250 mg/kg), and we believe the toxicity was unrelated to the glucosidase inhibition mechanism), it seems wise to explore the possibility of alternative glucosidase inhibitors for the proposed study. Thus, Aim 1 will be to explore the possibility that other compounds, with less toxicity can be found. […] It is therefore an attractive back up compound. Thus, although NNDNJ could be used in the proposed studies as a “stalking horse” and for a proof of concept, it will be “parked” (held in reserve) as we test other glucosidase inhibitors in our portfolio. Identification of the most appropriate glucosidase inhibitor

[3] = rat, in vivo
Procedure: Based upon the toxicology data obtained from a 14 day rat study on N-nonyl-DNJ, the toxicity with the alkovirs is predicated to be minimal. With N-nonyl-DNJ, toxicity primarily consisted of GI upset as a result of inhibiting the gut α-glucosidase enzymes involved in carbohydrate digestion. It should be noted that even though toxicity was observed, the maximum tolerated dose was determined to be 250 mg/kg bid. This was well above the amount required to achieve serum drug concentrations that were anti-viral.

2.2.15 cells = experiment: Selectivity index (CC90/IC90), MHBs secretion and MTT on 2.2.15 cells; format: cell-based
From the text: Selectivity index and cytotoxicity assessment. The concentration of compound needed to reduce the amount of MHBs present in the culture medium (of MHBs producing cells) by 90%, relative to untreated or placebo treated controls will be considered to be the IC90 (inhibitory concentration, 90). The toxicity of the compounds to the tissue cultures will initially be determined the MTT assay, as described in (Lu et al., 1997). Briefly, the amount of MTT enzyme functional in the same sets of cells used for determination of the ability of a compound to reduce the secretion of MHBs (see above) will be measured. Thus, the impact of a compound upon cell viability will be assessed in the same cells in which MHBs reductions have been determined. The concentration of compound that results in a reduction of MTT activity (compared to untreated cultures) of 90% will be considered to be the CC90. The selectivity index will be expressed as the CC90 divided by the IC90. Using these criteria, as determined by assays on 2.2.15 cells under the conditions described in prelim. evidence, the selectivity index of NNDNJ is approximate 100. Thus, compounds will be considered attractive if they have a selectivity index of greater than 100.

glucosidase [4] = details: cited from earlier work
liver cells = details: cited from earlier work

SMILES: CCCCCCCCCN1C[C@H](O)[C@@H](O)[C@H](O)[C@H]1CO [NN-DNJ, 1,5-dideoxy-1,5-nonylylimino-D-glucitol]
- amount of M protein in the culture medium (HBV M protein; 10 μg/ml): almost undetectable levels
- HBV M protein secretion at concentrations with no impact upon glycan inhibition (HBV M protein; concentrations which have no impact upon glycan inhibition, data not shown): no effect
- secretion of the M protein (HBV M protein; indicated concentrations, three days, FIG. 4): prevented the secretion of the M protein
- inhibits glycan processing (glucosidase [1]): 15-20%
- dose at which dose limiting toxicity occurred [2]: more than 250 mg/kg
- maximum tolerated dose [3]: 250 mg/kg bid
- toxicity observed [3]: GI upset
- selectivity index (CC90 divided by IC90) (2.2.15 cells): ~100
- inhibit glucosidase (glucosidase [4]): 15-20%
- uptake by liver cells (liver cells): preferentially taken up by liver cells
